Structures can show the parent of a compound that is named as a salt.
What was measured:
Format in all cases: physicochemical
[1] = Hygroscopicity test (weight change in desiccators of constant relative humidity); parameters: scale not given here; conditions: room temperature, one day
Protocol: The hygroscopicity tests of the acid addition salts prepared in Examples 1-1 to 1-6 and Comparative Example 1 were performed.
After one day, the change in weight was measured, then transferred to another desiccator and the previous experiment was repeated. At this time, for sorption analysis, the weight change was measured by moving the sample from a low-humidity desiccator to a high-humidity desiccator, and for desorption analysis, the weight change was measured by transferring the sample from a high-humidity desiccator with high humidity to a low-humidity desiccator.

[2] = Stability confirmation: severe test with respect to temperature, HPLC peak area of main component; conditions: 60° C., relative humidity less than 10%
Protocol: (§1) The acid addition salts prepared in some Examples and Comparative Examples were subjected to stability tests against high temperature and high humidity.
Specifically, the severe tests with respect to temperature were performed by placing 50 mg of a sample in a vial, closing the lid, and then measuring the content of impurities using HPLC (Azura, KNAUER, P6.1 1 L, DAD 6.1 L) after 1 week, 2 weeks, 4 weeks, and 8 weeks while storing in a chamber at 60° C. and a relative humidity of less than 10%.
(§2) At a fixed time after the start of the test, one vial or beaker was taken out from each time point (the number of samples per test: n=1), and impurities were analyzed using HPLC under the conditions shown in Table 3 below. Then, the peak area was determined through integration for all the detected peaks, and then the relative peak area (%) for the main component was calculated and expressed as an average value.

[3] = Stability confirmation: severe test with respect to moisture, HPLC peak area of main component; conditions: 93% RH, open beaker
Protocol: as §1
And, the severe tests with respect to moisture were performed by placing 50 mg of a sample in a 10 ml beaker, and measuring the content of impurities using HPLC (Azura, KNAUER, P6.1 1 L, DAD 6.1 L) after 1 week, 2 weeks, 4 weeks, and 8 weeks while storing the sample in a 93% RH desiccator in a state that the lid was not closed so that the sample has sufficient contact with the moisture in the air.
as §2

[4] = Differential scanning calorimetry analysis after severe test with respect to temperature; conditions: high temperature condition (60° C.), 1 week and 8 weeks; Dihydrochloride
Protocol: For (2R,3S)-2-(3-(4,5-dichloro-1H-benzo[d]imidazol-1-yl)propyl)piperidin-3-ol monohydrochloride prepared in Example 1-1 and (2R,3S)-2-(3-(4,5-dichloro-1H-benzo[d]imidazol-1-yl)propyl)piperidin-3-ol dihydrochloride prepared in Comparative Example 1, each beaker was taken out 1 week and 8 weeks after the start of the test from the desiccator where the severe tests with respect to temperature were in progress, and the differential scanning calorimetry analysis was performed. At this time, the differential scanning calorimetry analysis was performed using a differential scanning calorimeter (DSC Q20, manufactured by TA Instruments) in a tightly closed pan under nitrogen purge at a scan rate of 10° C./min while raising the temperature from 20° C. to 300° C.

Compound | weight change, desorption ([1]; 11% RH) | weight change, desorption ([1]; 33% RH) | weight change, desorption ([1]; 54% RH) | weight change, desorption ([1]; 75% RH) | weight change, sorption ([1]; 11% RH) | weight change, sorption ([1]; 33% RH) | weight change, sorption ([1]; 54% RH) | weight change, sorption ([1]; 75% RH) | weight change, sorption ([1]; 93% RH) | relative peak area for the main component (HPLC) ([2]; after 1 week) [%] | relative peak area for the main component (HPLC) ([2]; after 2 weeks) [%] | relative peak area for the main component (HPLC) ([2]; after 4 weeks) [%] | relative peak area for the main component (HPLC) ([2]; after 8 weeks) [%] | relative peak area for the main component (HPLC) ([2]; initial) [%] | relative peak area for the main component (HPLC) ([3]; after 1 week) [%] | relative peak area for the main component (HPLC) ([3]; after 2 weeks) [%] | relative peak area for the main component (HPLC) ([3]; after 4 weeks) [%] | relative peak area for the main component (HPLC) ([3]; after 8 weeks) [%] | relative peak area for the main component (HPLC) ([3]; initial) [%] | further results
(2R,3S)-2-(3-(4,5-dichloro-1H-benzo[d]imidazol-1-yl)propyl)piperidin-3-ol Dioxalate II [Example 1-3] | 100 | 100 | 100.2 | 100.8 | 100 | 100 | 100 | 101.3 | 101.3 | 99.9 | 99.8 | 99.8 | 99.9 | 99.8 | 99.7 | 99.8 | 99.9 | 99.9 | 99.8 | 
O[C@H]1CCCN[C@@H]1CCCn1cnc2c(Cl)c(Cl)ccc21 [Example 1-2, (2R,3S)-2-(3-(4,5-dichloro-1H-benzo[d]imidazol-1-yl)propyl)piperidin-3-ol Dioxalate I] | 100 | 101.6 | 102 | 102.9 | 100 | 101.1 | 101.8 | 102.9 | 105.6 | 99.9 | 99.8 | 99.7 | 99.8 | 99.8 | 99.3 | 99.7 | 99.8 | 99.8 | 99.8 | 
O[C@H]1CCCN[C@@H]1CCCn1cnc2c(Cl)c(Cl)ccc21 [Example 1-5, (2R,3S)-2-(3-(4,5-dichloro-1H-benzo[d]imidazol-1-yl)propyl)piperidin-3-ol Hemi-Maleate] | 99.5 | 99.8 | 99.8 | 100.5 | 100 | 100 | 100.7 | 100.9 | 101.6 |  | 99.8 | 99.7 | 99.9 | 99.8 |  | 99.8 | 99.8 | 99.9 | 99.8 | 
O[C@H]1CCCN[C@@H]1CCCn1cnc2c(Cl)c(Cl)ccc21 [Example 1-4, (2R,3S)-2-(3-(4,5-dichloro-1H-benzo[d]imidazol-1-yl)propyl)piperidin-3-ol Hemi-Oxalate] | 101.0 | 101.0 | 101.9 | 103.2 | 100 | 101.0 | 101.6 | 101.9 | 105.4 |  |  |  |  |  |  |  |  |  |  | 
O[C@H]1CCCN[C@@H]1CCCn1cnc2c(Cl)c(Cl)ccc21 [Comparative Example 1, (2R,3S)-2-(3-(4,5-dichloro-1H-benzo[d]imidazol-1-yl)propyl)piperidin-3-ol Dihydrochloride, reference compound] |  |  |  |  |  |  |  |  |  |  |  |  |  |  |  |  |  |  |  | weight change, desorption ([1]; 11% RH, Dihydrochloride): 102.9; weight change, desorption ([1]; 33% RH, Dihydrochloride): 103.9; weight change, desorption ([1]; 54% RH, Dihydrochloride): 104.7; weight change, desorption ([1]; 75% RH, Dihydrochloride): 105.4; weight change, sorption ([1]; 33% RH, Dihydrochloride): 100.9; weight change, sorption ([1]; 54% RH, Dihydrochloride): 108; weight change, sorption ([1]; 75% RH, Dihydrochloride): 105.4; weight change, sorption ([1]; 93% RH, Dihydrochloride): 128; relative peak area for the main component (HPLC) ([2]; after 1 week, Dihydrochloride): 99.7%; relative peak area for the main component (HPLC) ([2]; after 2 weeks, Dihydrochloride): 99.7%; relative peak area for the main component (HPLC) ([2]; after 4 weeks, Dihydrochloride): 99.8%; relative peak area for the main component (HPLC) ([2]; after 8 weeks, Dihydrochloride): 99.7%; relative peak area for the main component (HPLC) ([2]; initial, Dihydrochloride): 99.6%; change in differential scanning calorimetry analysis pattern [4]: shows a change in the differential scanning calorimetry analysis pattern; relative peak area for the main component (HPLC) ([3]; after 1 week, Dihydrochloride): 99.7%; relative peak area for the main component (HPLC) ([3]; after 2 weeks, Dihydrochloride): 99.7%; relative peak area for the main component (HPLC) ([3]; after 4 weeks, Dihydrochloride): 99.7%; relative peak area for the main component (HPLC) ([3]; after 8 weeks, Dihydrochloride): 99.7%; relative peak area for the main component (HPLC) ([3]; initial, Dihydrochloride): 99.6%
